Results: paper PMC4279406, “Simultaneous targeting of PI3Kδ and a PI3Kδ-dependent MEK1/2-Erk1/2 pathway for therapy in pediatric B-cell acute lymphoblastic leukemia” (Oncotarget, 2014)

Experiments:
[1] = test system: PI3KC2α, PI3KC2γ, PIP4K2α, PIP5K1α and PIP5K1γ; experiment: Selectivity against other lipid kinases; assay type: biochemical
Description: Utilizing the crystal structure of PI3Kδ, we designed and synthesized a series of compounds in an effort to discover new potent and selective PI3Kδ inhibitors, which bind to PI3Kδ differently from CAL-101. […] The benzimidazole group of X-370 extends into the affinity pocket, where its nitrogen acts as a hydrogen bond acceptor for the primary amine of Lys779. The difluoromethyl group of X-370 points toward Pro758 in the hydrophobic affinity pocket. Instead of wedging between Met752 and Trp760, a binding mode utilized by CAL-101 to generate specificity against PI3Kδ (Figure S1), the pyrrole group of X-370 presses tightly against Trp760. These specific interactions of X-370 with p110δ confer a selective and potent inhibition of PI3Kδ. As expected, X-370 inhibited the kinase activity of PI3Kδ in an ATP-competitive manner, with IC50 increasing in concert with ATP levels (Figure 1C), confirming the binding of X-370 in the ATP pocket. […] More than 1000-fold selectivity was seen against other lipid kinases tested including PI3KC2α, PI3KC2γ, PIP4K2α, PIP5K1α and PIP5K1γ. […]
Figure 1 Structure of X-370 and its inhibitory activity against lipid kinases (A) Chemical structure of X-370. […] Relative kinase activity in the presence of 10 μM X-370 compared to DMSO control was measured for the rest of lipid kinases. […]

Raji-R cells = experiment: Signaling by Western blot in Raji-R cells; assay type: cell-based, human; conditions: 1 h
Protocol: Raji and SU-DHL-6 cells were treated with X-370 for 1 h (left panel) or treated with 0.5 μM X-370 for indicated times (middle panel). Right panel, Raji cells were incubated in fresh medium following treatment with 0.5 μM X-370 for 1 h. Indicated proteins were detected. (B) Raji-R (the rituximab-resistant derivatives of Raji cells) cells were resistant to X-370. The activity of X-370 on the proliferation of Raji parent and Raji-R cells was determined by CCK-8 assay as described in the methods section. (C) X-370 blocked phosphorylation of Akt but not Erk1/2 in Raji-R cells. Raji-R cells were treated with X-370 for 1h and indicated proteins were detected. Data shown are representative from three independent experiments.
Simultaneous targeting of PI3Kδ and a PI3Kδ-dependent MEK1/2-Erk1/2 pathway for therapy in pediatric B-cell acute lymphoblastic […]
Cells were treated as indicated conditions and then subjected to lysate to perform standard Western blot as described previously1. Briefly, whole-cell lysates and SDS-loading buffer diluted cell fractions were analyzed on SDS-PAGE gels. […]
Raji cells were treated with or without X-370 at 1 μM, 5μM and 10 μM for 24, 48 and 72 hours, thenwere measured using the Caspase-Glo® 3/7 Assay (Promega, US) following the protocol and relative caspase-3/7 activity was normalized to cell number which DMSO control was the base line. […]

O=C(N1CCCC1)N1CCC(n2cnc3c(-n4c(C(F)F)nc5ccccc54)nc(N4CCOCC4)nc32)CC1 [X-370]
selectivity for PI3Kδ against other lipid kinases [1]: More than 1000 fold | Akt and S6k1 phosphorylation (Raji-R cells): significantly inhibited | level of phosphorylated Erk1/2 (Raji-R cells): negligible activity
